# Data as given in US10137174B2, “Methods and materials for treating cancers that express reduced levels of wild-type p53 polypeptides” (Mayo Foundation for Medical Education and Research, priority 2009, dated 2018).
# Tests used:
# [1] = molecular target: T1, USP10 polypeptide (Homo sapiens, UniProt Q14694); assay: Ub-AMC deubiquitination assay with USP10 polypeptide; format: biochemical; conditions: USP10 4 μg/mL, Ub-AMC 300 nmol/L, vs DMSO, p<0.01
# T1 construct: His; made in house; host or cells: E. coli BL21 (pET-28a vector)
# T1 sequence (Q14694 whole entry): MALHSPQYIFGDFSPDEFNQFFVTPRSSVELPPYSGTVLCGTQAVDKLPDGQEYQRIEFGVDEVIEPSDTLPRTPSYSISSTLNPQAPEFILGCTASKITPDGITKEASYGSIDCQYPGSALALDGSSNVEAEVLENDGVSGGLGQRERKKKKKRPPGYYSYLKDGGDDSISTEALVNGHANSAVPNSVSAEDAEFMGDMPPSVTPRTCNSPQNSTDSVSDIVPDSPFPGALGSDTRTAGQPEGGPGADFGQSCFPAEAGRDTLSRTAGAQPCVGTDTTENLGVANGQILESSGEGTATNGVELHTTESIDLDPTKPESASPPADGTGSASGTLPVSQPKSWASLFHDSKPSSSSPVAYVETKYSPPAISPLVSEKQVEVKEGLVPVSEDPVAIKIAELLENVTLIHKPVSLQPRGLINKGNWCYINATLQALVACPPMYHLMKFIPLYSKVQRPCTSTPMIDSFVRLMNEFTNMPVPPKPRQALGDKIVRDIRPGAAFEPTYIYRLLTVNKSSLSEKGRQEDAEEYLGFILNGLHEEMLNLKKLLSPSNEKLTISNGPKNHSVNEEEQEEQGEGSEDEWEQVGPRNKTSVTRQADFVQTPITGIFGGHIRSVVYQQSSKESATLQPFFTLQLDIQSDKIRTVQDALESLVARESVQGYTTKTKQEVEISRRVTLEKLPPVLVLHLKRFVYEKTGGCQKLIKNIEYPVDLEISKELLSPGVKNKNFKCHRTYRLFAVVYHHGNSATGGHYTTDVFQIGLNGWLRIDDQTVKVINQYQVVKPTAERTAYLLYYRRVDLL
# Procedure: FIG. 17A is a concentration curve graph plotting the level of deubiquitination of Ub-AMC observed following incubation with the indicated amounts of USP10 polypeptide (μg). FIG. 17B is a graph plotting the level of deubiquitination of Ub-AMC in the presence (right) or absence (left) of 4 μg/mL of USP10 polypeptides and the indicated compound.
# Briefly, the amount of Ub-AMC deubiquitination in vitro increased as the concentration of USP10 polypeptides increased (FIG. 17A).
# N-ethylmaleimide (1 mM), Z-phe-ala fluoromethyl ketone ([…] dihydrochloride (10 μg/mL), E-64 (10 μM), chymostatia ([…] fluoride (40 μM), E-64d (0.5 μM), and cystatin (36 μg/mL) were tested for the ability to inhibit USP10 polypeptide activity using USP10 polypeptide (4 μg/mL) and Ub-AMC (300 nmol/L). Briefly, both enzyme (USP10 polypeptide) and substrate (Ub-AMC) were freshly prepared in USP10 reaction buffer (50 mmol/L Tris-HCl (pH 7.6), 0.5 mmol/L EDTA, 5 mmol/L DTT, 0.01% Triton X-100, and 0.05 mg/mL serum albumin) for each run. Each well (except substrate control wells) in a typical assay contained 4 μg/mL of USP10, the compound, or 2% DMSO. The wells were incubated for 30 minutes to attain equilibrium, and the enzymatic reaction was then initiated by adding the substrate (300 nmol/L of Ub-AMC). […]
# [2] = system: USP10 phosphorylation (PIKKs/ATM); assay: USP10 phosphorylation at SQ/TQ motifs after DNA damage (FLAG-USP10 IP, pSQ/TQ blot) in HCT116 cells; format: cell-based; conditions: Ku55933, 2 hours pretreatment; 10 Gy radiation; HCT116 cells with FLAG-USP10
# Procedure: Forty-eight hours later, the cells were left untreated or treated with 10 Gy radiation, 40 J/m^2 UV, or 20 mM etoposide. After an additional 1 hour, the cells were harvested. Cell lysates were subjected to immunoprecipitation with anti-FLAG antibody and immunobloted with phospho-SQ/TQ (pSQ/TQ) antibody. […] After 2 hours of incubation, cells were left untreated or treated with 10 Gy radiation. The phosphorylation of USP10 was examined as in (FIG. 6C). […] Cells were left untreated or treated with 10 Gy radiation. USP10 phosphorylation was examined by pSQ/TQ antibody.
# Cells were lysed with NETN buffer (20 mM Tris-HCl, pH 8.0, 100 mM NaCl, 1 mM EDTA, 0.5% Nonidet P-40) containing 50 mM β-glycerophosphate, 10 mM NaF, and 1 mg/mL each of pepstatin A, and aprotinin. Whole cell lysates obtained by centrifugation were incubated with 2 μg of antibody and protein A or protein G Sepharose beads (Amersham Biosciences) for 2 hours at 4° C. The immunocomplexes were then washed with NETN buffer three times and separated by SDS-PAGE. Immunoblotting was performed following standard procedures.
compound,measurement,setting,value
C[C@H](NC(=O)[C@H](Cc1ccccc1)NC(=O)OCc1ccccc1)C(=O)CF [Z-phe-ala fluoromethyl ketone],deubiquitinating activity of USP10 polypeptides,[1]; compound 80 μM,significantly inhibited
O=c1cc(-c2cccc3c2Sc2ccccc2S3)oc(N2CCOCC2)c1 [KU55933],USP10 phosphorylation after IR,[2],inhibited
CCN1C(=O)C=CC1=O [N-ethylmaleimide],deubiquitinating activity of USP10 polypeptides,[1]; compound 1 mM,significantly inhibited
